US9125913B2, “Bcl-2-selective apoptosis-inducing agents for the treatment of cancer and immune diseases” (AbbVie Inc., priority 2008, dated 2015)

Test system: GST-Bcl-2
Experiment: TR-FRET binding assay, Bcl-2
Conditions: TR-FRET Ki values
Procedure: Tb-anti-GST antibody was purchased from Invitrogen (Catalog No. PV4216).
Representative compounds were serially diluted in dimethyl sulfoxide (DMSO) starting at 50 μM (2× starting concentration; 10% DMSO) and 10 μL were transferred into a 384-well plate.
The samples were then mixed on a shaker for 1 minute and incubated for an additional 3 hours at room temperature. For each assay, the probe/antibody and protein/probe/antibody were included on each assay plate as negative and positive controls, respectively. Fluorescence was measured on the Envision (Perkin Elmer) using a 340/35 nm excitation filter and 520/525 (F-Bak peptide) and 495/510 nm (Tb-labeled anti-Histidine antibody) emission filters.
The inhibition constant (Ki) is the dissociation constant of an enzyme-inhibitor complex or a protein/small molecule complex, wherein the small molecule is inhibiting binding of one protein to another protein or peptide. […] Inhibition constants were determined using Wang's equation (Wang Z-X., An Exact Mathematical Expression For Describing Competitive Binding Of Two Different Ligands To A Protein Molecule. FEBS Lett. 1995, 360:111-4).

| SMILES | Binding selectivity ratio (Bcl-XL Ki/Bcl-2 Ki) |
| --- | --- |
| CC1(C)CCC(CN2CCN(c3ccc(C(=O)NS(=O)(=O)c4ccc(NCC5(N)CCOCC5)c([N+](=O)[O-])c4)c(Oc4cccc5[nH]ccc45)c3)CC2)=C(c2ccc(Cl)cc2)C1 [Example 176, N-[(4-{[(4-aminotetrahydro-2H-pyran-4-yl)methyl]amino}-3-nitrophenyl)sulfonyl]-4-(4-{[2-(4-chlorophenyl)-4,4-dimethylcyclohex-1-en-1-yl]methyl}piperazin-1-yl)-2-(1H-indol-4-yloxy)benzamide] | 177.8 |
| CC(C)[C@H](CO)Nc1ccc(S(=O)(=O)NC(=O)c2ccc(N3CCN(CC4=C(c5ccc(Cl)cc5)CC(C)(C)CC4)CC3)cc2Oc2ccc3[nH]ccc3c2)cc1[N+](=O)[O-] [EXAMPLE 371, 4-(4-{[2-(4-chlorophenyl)-4,4-dimethylcyclohex-1-en-1-yl]methyl}piperazin-1-yl)-N-[(4-{[(1R)-1-(hydroxymethyl)-2-methylpropyl]amino}-3-nitrophenyl)sulfonyl]-2-(1H-indol-5-yloxy)benzamide] | >78.8 |
| CC1(C)CCC(CN2CCN(c3ccc(C(=O)NS(=O)(=O)c4ccc(CCC5CCOCC5)c([N+](=O)[O-])c4)c(Oc4ccc5[nH]ccc5c4)c3)CC2)=C(c2ccc(Cl)cc2)C1 [EXAMPLE 296, 4-(4-{[2-(4-chlorophenyl)-4,4-dimethylcyclohex-1-en-1-yl]methyl}piperazin-1-yl)-2-(1H-indol-5-yloxy)-N-{[3-nitro-4-(2-tetrahydro-2H-pyran-4-ylethyl)phenyl]sulfonyl}benzamide] | >1014.4 |
| CN1CC(Nc2ccc(S(=O)(=O)NC(=O)c3ccc(N4CCN(CC5=C(c6ccc(Cl)cc6)CC(C)(C)CC5)CC4)cc3Oc3ccc4[nH]ccc4c3)cc2[N+](=O)[O-])CC1=O (centres unmarked) [EXAMPLE 281, 4-(4-{[2-(4-chlorophenyl)-4,4-dimethylcyclohex-1-en-1-yl]methyl}piperazin-1-yl)-2-(1H-indol-5-yloxy)-N-({4-[(1-methyl-5-oxopyrrolidin-3-yl)amino]-3-nitrophenyl}sulfonyl)benzamide] | 1558.9 |
| CC1(C)CCC(CN2CCN(c3ccc(C(=O)NS(=O)(=O)c4ccc(NN5CCCCC5)c([N+](=O)[O-])c4)c(Oc4cccc5[nH]ccc45)c3)CC2)=C(c2ccc(Cl)cc2)C1 [EXAMPLE 283, 4-(4-{[2-(4-chlorophenyl)-4,4-dimethylcyclohex-1-en-1-yl]methyl}piperazin-1-yl)-2-(1H-indol-4-yloxy)-N-{[3-nitro-4-(piperidin-1-ylamino)phenyl]sulfonyl}benzamide] | >13.9 |
| Cn1cncc1CNc1ccc(S(=O)(=O)NC(=O)c2ccc(N3CCN(CC4=C(c5ccc(Cl)cc5)CC(C)(C)CC4)CC3)cc2Oc2ccc3[nH]ccc3c2)cc1[N+](=O)[O-] [EXAMPLE 360, 4-(4-{[2-(4-chlorophenyl)-4,4-dimethylcyclohex-1-en-1-yl]methyl}piperazin-1-yl)-2-(1H-indol-5-yloxy)-N-[(4-{[(1-methyl-1H-imidazol-5-yl)methyl]amino}-3-nitrophenyl)sulfonyl]benzamide] | 633.9 |
| CC1(C)CCC(CN2CCN(c3ccc(C(=O)NS(=O)(=O)c4cnc(NCC5CCOCC5)c(-c5nccs5)c4)c(Oc4cccc5[nH]ccc45)c3)CC2)=C(c2ccc(Cl)cc2)C1 [EXAMPLE 365, 4-(4-{[2-(4-chlorophenyl)-4,4-dimethylcyclohex-1-en-1-yl]methyl}piperazin-1-yl)-2-(1H-indol-4-yloxy)-N-{[6-[(tetrahydro-2H-pyran-4-ylmethyl)amino]-5-(1,3-thiazol-2-yl)pyridin-3-yl]sulfonyl}benzamide] | >612.9 |
| CN1CCN(Nc2ccc(S(=O)(=O)NC(=O)c3ccc(N4CCN(CC5=C(c6ccc(Cl)cc6)CC(C)(C)CC5)CC4)cc3Oc3cccc4[nH]ccc34)cc2S(=O)(=O)C(F)(F)F)CC1 [EXAMPLE 215, 4-(4-{[2-(4-chlorophenyl)-4,4-dimethylcyclohex-1-en-1-yl]methyl}piperazin-1-yl)-2-(1H-indol-4-yloxy)-N-({4-[(4-methylpiperazin-1-yl)amino]-3-[(trifluoromethyl)sulfonyl]phenyl}sulfonyl)benzamide] | 120.8 |
| CC1(C)CCC(CN2CCN(c3ccc(C(=O)NS(=O)(=O)c4ccc(N[C@@H]5CCN(Cc6ccccc6)C[C@@H]5O)c([N+](=O)[O-])c4)c(Oc4ccc5[nH]ccc5c4)c3)CC2)=C(c2ccc(Cl)cc2)C1 [EXAMPLE 187, N-[(4-{[(3S,4R)-1-benzyl-3-hydroxypiperidin-4-yl]amino}-3-nitrophenyl)sulfonyl]-4-(4-{[2-(4-chlorophenyl)-4,4-dimethylcyclohex-1-en-1-yl]methyl}piperazin-1-yl)-2-(1H-indol-5-yloxy)benzamide] | >2003.9 |
| CC1(C)CN(c2ccc(S(=O)(=O)NC(=O)c3ccc(N4CCN(Cc5ccccc5-c5ccc(Cl)cc5)CC4)cc3Oc3ccccc3)cc2)C1=O [Example 30, 4-{4-[(4′-chloro-1,1′-biphenyl-2-yl)methyl]piperazin-1-yl}-N-{[4-(3,3-dimethyl-2-oxoazetidin-1-yl)phenyl]sulfonyl}-2-phenoxybenzamide] | >6.4 |
| CC1(C)CCC(CN2CCN(c3ccc(C(=O)NS(=O)(=O)c4ccc(NC5CCN(C6CCOCC6)CC5)c([N+](=O)[O-])c4)c(Oc4cccnc4)c3)CC2)=C(c2ccc(Cl)cc2)C1 [EXAMPLE 398, 4-(4-{[2-(4-chlorophenyl)-4,4-dimethylcyclohex-1-en-1-yl]methyl}piperazin-1-yl)-N-({3-nitro-4-[(1-tetrahydro-2H-pyran-4-ylpiperidin-4-yl)amino]phenyl}sulfonyl)-2-(pyridin-3-yloxy)benzamide] | 67.69 |
| CC1(C)CCC(CN2CCN(c3ccc(C(=O)NS(=O)(=O)c4ccc(NCCCN5CCNC(=O)C5)c([N+](=O)[O-])c4)c(Oc4cccc5[nH]ccc45)c3)CC2)=C(c2ccc(Cl)cc2)C1 [EXAMPLE 223, 4-(4-{[2-(4-chlorophenyl)-4,4-dimethylcyclohex-1-en-1-yl]methyl}piperazin-1-yl)-2-(1H-indol-4-yloxy)-N-[(3-nitro-4-{[3-(3-oxopiperazin-1-yl)propyl]amino}phenyl)sulfonyl]benzamide] | 574.1 |
| O=C(NS(=O)(=O)c1ccc(NC2CCN(C3CCOCC3)CC2)c([N+](=O)[O-])c1)c1ccc(N2CCN(Cc3ccc(C(F)(F)F)cc3-c3ccc(Cl)cc3)CC2)cc1Oc1ccc2[nH]ccc2c1 [EXAMPLE 358, 4-(4-{[4′-chloro-5-(trifluoromethyl)-1,1′-biphenyl-2-yl]methyl}piperazin-1-yl)-2-(1H-indol-5-yloxy)-N-({3-nitro-4-[(1-tetrahydro-2H-pyran-4-ylpiperidin-4-yl)amino]phenyl}sulfonyl)benzamide] | >121.8 |
| CC1(C)CCC(CN2CCN(c3ccc(C(=O)NS(=O)(=O)c4cnc(OCC5(F)CCOCC5)c(C#N)c4)c(Oc4cccc5[nH]ccc45)c3)CC2)=C(c2ccc(Cl)cc2)C1 [EXAMPLE 393, 4-(4-{[2-(4-chlorophenyl)-4,4-dimethylcyclohex-1-en-1-yl]methyl}piperazin-1-yl)-N-({5-cyano-6-[(4-fluorotetrahydro-2H-pyran-4-yl)methoxy]pyridin-3-yl}sulfonyl)-2-(1H-indol-4-yloxy)benzamide] | 1110 |
